Data on 13 compounds can be found in PMC8944975, “Secretin Receptor as a Target in Gastrointestinal Cancer: Expression Analysis and Ligand Development” (Biomedicines, 2022).

Where a SMILES comes first, the peptide text is derived from it. [ ]: non-standard residue; d: D form.

As usually defined, the IC50 is the concentration needed to halve the response being measured.

The target of the first assay is human SCTR (Homo sapiens, UniProt P47872). The experiment in a line: β-arr2-GFP translocation assay run in antagonist mode. For IC50, inhibition of β-arr2-GFP translocation (Table 3): peptide 5 min at 37 °C. The format is cell-based. Set-up: expressed in transfected cells; host or cells: U2OS (human osteosarcoma), stably co-transfected with β-arrestin2-GFP. The conditions noted are these: read-out: IC50, inhibition of β-arr2-GFP translocation (Table 2). The source says: U2OS-SCTR/β-arr2-GFP: human osteosarcoma cell line U2OS (purchased from ATCC/LGC Standards, Wesel, Germany) were stably transfected with plasmids encoding SCTR (Homo sapiens) and the fusion protein β-arrestin2-green fluorescent protein (GFP) (Rattus norvegicus-Aequorea victoria) (β-arr2-GFP).
human SCTR, sequence (P47872 23-440): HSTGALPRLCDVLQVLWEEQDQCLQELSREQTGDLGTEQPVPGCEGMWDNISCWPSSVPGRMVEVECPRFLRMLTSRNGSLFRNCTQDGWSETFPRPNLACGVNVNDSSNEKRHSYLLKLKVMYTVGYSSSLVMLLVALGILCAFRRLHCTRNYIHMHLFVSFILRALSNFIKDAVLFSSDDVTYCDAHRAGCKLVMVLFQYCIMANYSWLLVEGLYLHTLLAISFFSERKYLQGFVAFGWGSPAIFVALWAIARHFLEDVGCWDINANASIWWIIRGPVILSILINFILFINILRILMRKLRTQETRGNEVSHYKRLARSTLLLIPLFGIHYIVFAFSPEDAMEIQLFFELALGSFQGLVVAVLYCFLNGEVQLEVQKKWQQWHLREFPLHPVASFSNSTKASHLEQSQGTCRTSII
For analysis of antagonistic effects on SCTR, a slightly modified protocol of the β-arr2-GFP translocation was used. […] For analysis, cells were terminally fixed and permeabilized as previously described. The additional monitoring of IDCC fluorescence in the near-infrared channel (667 nm) provided another measure for receptor binding and activation.
As to `CC(C)C[C@H](NC(=O)CNC(=O)[C@H](CCC(N)=O)NC(=O)[C@H](CC(C)C)NC(=O)[C@H](CC(C)C)NC(=O)[C@H](CCCNC(=N)N)NC(=O)[C@H](CCC(N)=O)NC(=O)[C@H](CC(C)C)NC(=O)[C@H](CCCNC(=N)N)NC(=O)[C@H](C)NC(=O)CNC(=O)[C@H](CCC(=O)O)NC(=O)[C@H](CCCNC(=N)N)NC(=O)[C@H](CC(C)C)NC(=O)[C@H](CCCNC(=N)N)NC(=O)[C@H](CO)NC(=O)[C@H](CC(C)C)NC(=O)[C@H](CCC(=O)O)NC(=O)[C@H](CO)NC(=O)[C@@H](NC(=O)[C@@H](N)Cc1ccccc1)[C@@H](C)O)C(=O)N[C@H](C(=O)O)C(C)C` [Peptide 119], the half-inhibitory concentration (IC50) is 2.34 ± 0.366 µM.

The same assay, now with this note: read-out: IC50, inhibition of β-arr2-GFP translocation (Table 3).
`CC(C)C[C@H](NC(=O)CNC(=O)[C@H](CCC(N)=O)NC(=O)[C@H](CC(C)C)NC(=O)[C@H](CC(C)C)NC(=O)[C@H](CCCNC(=N)N)NC(=O)[C@H](CCC(N)=O)NC(=O)[C@H](CC(C)C)NC(=O)[C@H](C)NC(=O)[C@H](C)NC(=O)CNC(=O)[C@H](CCC(=O)O)NC(=O)[C@H](CCCNC(=N)N)NC(=O)[C@H](CC(C)C)NC(=O)[C@H](CCCNC(=N)N)NC(=O)[C@H](CO)NC(=O)[C@H](CC(C)C)NC(=O)[C@H](CCC(=O)O)NC(=O)[C@H](CO)NC(=O)[C@@H](NC(=O)[C@H](Cc1ccccc1)NC(=O)[C@H](N)CCCNC(=N)N)[C@@H](C)O)C(=O)N[C@H](C(=O)O)C(C)C` [Peptide 137] (H-[dR]FTSELSRLREGAALQRLLQGLV-OH): the IC50 stood at 1.86 ± 0.159 µM.

Take `CC(C)C[C@H](NC(=O)CNC(=O)[C@H](CCC(N)=O)NC(=O)[C@H](CC(C)C)NC(=O)[C@H](CC(C)C)NC(=O)[C@H](CCCNC(=N)N)NC(=O)[C@H](C)NC(=O)[C@H](CC(C)C)NC(=O)[C@H](CCCNC(=N)N)NC(=O)[C@H](C)NC(=O)CNC(=O)[C@H](CCC(=O)O)NC(=O)[C@H](CCCNC(=N)N)NC(=O)[C@H](CC(C)C)NC(=O)[C@H](CCCNC(=N)N)NC(=O)[C@H](CO)NC(=O)[C@H](CC(C)C)NC(=O)[C@H](CCC(=O)O)NC(=O)[C@H](CO)NC(=O)[C@@H](NC(=O)[C@H](Cc1ccccc1)NC(=O)[C@H](N)CCCNC(=N)N)[C@@H](C)O)C(=O)N[C@H](C(=O)O)C(C)C` [Peptide 139] (H-[dR]FTSELSRLREGARLARLLQGLV-OH): the IC50 worked out at 1.02 ± 0.107 µM.

In the case of `CC(C)C[C@H](NC(=O)CNC(=O)[C@H](CCC(N)=O)NC(=O)[C@H](CC(C)C)NC(=O)[C@H](CC(C)C)NC(=O)[C@H](CCCNC(=N)N)NC(=O)[C@H](CCC(N)=O)NC(=O)[C@H](CC(C)C)NC(=O)[C@H](CCCNC(=N)N)NC(=O)[C@H](C)NC(=O)CNC(=O)[C@H](CCC(=O)O)NC(=O)[C@H](CCCNC(=N)N)NC(=O)[C@H](CC(C)C)NC(=O)[C@H](CCCNC(=N)N)NC(=O)[C@H](CO)NC(=O)[C@H](CC(C)C)NC(=O)[C@H](CCC(=O)O)NC(=O)[C@H](CO)NC(=O)[C@@H](NC(=O)[C@H](Cc1ccccc1)NC(=O)[C@@H](N)CCCNC(=N)N)[C@@H](C)O)C(=O)N[C@H](C(=O)O)C(C)C` [Peptide 124], the IC50 is 0.924 ± 0.237 µM.

On to `CC(C)C[C@H](NC(=O)CNC(=O)[C@H](CCC(N)=O)NC(=O)[C@H](CC(C)C)NC(=O)[C@H](CC(C)C)NC(=O)[C@H](CCCNC(=N)N)NC(=O)[C@H](CCC(N)=O)NC(=O)[C@H](CC(C)C)NC(=O)[C@H](CCCNC(=N)N)NC(=O)[C@H](C)NC(=O)CNC(=O)[C@H](CCC(=O)O)NC(=O)[C@H](CCCNC(=N)N)NC(=O)[C@H](CC(C)C)NC(=O)[C@H](CCCNC(=N)N)NC(=O)[C@H](CO)NC(=O)[C@H](CC(C)C)NC(=O)[C@H](CCC(=O)O)NC(=O)[C@H](CO)NC(=O)[C@@H](NC(=O)[C@H](C)NC(=O)[C@H](N)CCCNC(=N)N)[C@@H](C)O)C(=O)N[C@H](C(=O)O)C(C)C` [Peptide 126], for which the half-maximal inhibitory concentration (IC50) is 1.76 ± 0.322 µM.

Take `CC(C)C[C@H](NC(=O)CNC(=O)[C@H](CCC(N)=O)NC(=O)[C@H](CC(C)C)NC(=O)[C@H](CC(C)C)NC(=O)[C@H](CCCNC(=N)N)NC(=O)[C@H](CCC(N)=O)NC(=O)[C@H](CC(C)C)NC(=O)[C@H](CCCNC(=N)N)NC(=O)[C@H](C)NC(=O)CNC(=O)[C@H](CCC(=O)O)NC(=O)[C@H](CCCNC(=N)N)NC(=O)[C@H](CC(C)C)NC(=O)[C@H](CCCNC(=N)N)NC(=O)[C@H](C)NC(=O)[C@H](CC(C)C)NC(=O)[C@H](CCC(=O)O)NC(=O)[C@H](CO)NC(=O)[C@@H](NC(=O)[C@H](Cc1ccccc1)NC(=O)[C@H](N)CCCNC(=N)N)[C@@H](C)O)C(=O)N[C@H](C(=O)O)C(C)C` [Peptide 131] (H-[dR]FTSELARLREGARLQRLLQGLV-OH): the IC50 stood at 0.998 ± 0.142 µM.

In the case of `CC(C)C[C@H](NC(=O)CNC(=O)[C@H](CCC(N)=O)NC(=O)[C@H](CC(C)C)NC(=O)[C@H](CC(C)C)NC(=O)[C@H](CCCNC(=N)N)NC(=O)[C@H](CCC(N)=O)NC(=O)[C@H](CC(C)C)NC(=O)[C@H](CCCNC(=N)N)NC(=O)[C@H](C)NC(=O)CNC(=O)[C@H](CCC(=O)O)NC(=O)[C@H](CCCNC(=N)N)NC(=O)[C@H](CC(C)C)NC(=O)[C@H](CCCNC(=N)N)NC(=O)[C@H](CO)NC(=O)[C@H](CC(C)C)NC(=O)[C@H](CCC(=O)O)NC(=O)[C@H](C)NC(=O)[C@@H](NC(=O)[C@H](Cc1ccccc1)NC(=O)[C@H](N)CCCNC(=N)N)[C@@H](C)O)C(=O)N[C@H](C(=O)O)C(C)C` [Peptide 128] (H-[dR]FTAELSRLREGARLQRLLQGLV-OH), the concentration for half-maximal inhibition (IC50) is 0.897 ± 0.108 µM.

`CC(C)C[C@H](NC(=O)CNC(=O)[C@H](CCC(N)=O)NC(=O)[C@H](CC(C)C)NC(=O)[C@H](CC(C)C)NC(=O)[C@H](CCCNC(=N)N)NC(=O)[C@H](CCC(N)=O)NC(=O)[C@H](CC(C)C)NC(=O)[C@H](CCCNC(=N)N)NC(=O)[C@H](C)NC(=O)CNC(=O)[C@H](CCC(=O)O)NC(=O)[C@H](CCCNC(=N)N)NC(=O)[C@H](C)NC(=O)[C@H](CCCNC(=N)N)NC(=O)[C@H](CO)NC(=O)[C@H](CC(C)C)NC(=O)[C@H](CCC(=O)O)NC(=O)[C@H](CO)NC(=O)[C@@H](NC(=O)[C@H](Cc1ccccc1)NC(=O)[C@H](N)CCCNC(=N)N)[C@@H](C)O)C(=O)N[C@H](C(=O)O)C(C)C` [Peptide 133] (H-[dR]FTSELSRAREGARLQRLLQGLV-OH): the IC50 was found to be 0.884 ± 0.169 µM.

For `CC(C)C[C@H](NC(=O)CNC(=O)[C@H](CCC(N)=O)NC(=O)[C@H](CC(C)C)NC(=O)[C@H](CC(C)C)NC(=O)[C@H](CCCNC(=N)N)NC(=O)[C@H](CCC(N)=O)NC(=O)[C@H](CC(C)C)NC(=O)[C@H](CCCNC(=N)N)NC(=O)[C@H](C)NC(=O)CNC(=O)[C@H](CCC(=O)O)NC(=O)[C@H](CCCNC(=N)N)NC(=O)[C@H](CC(C)C)NC(=O)[C@H](CCCNC(=N)N)NC(=O)[C@H](CO)NC(=O)[C@H](CC(C)C)NC(=O)[C@H](C)NC(=O)[C@H](CO)NC(=O)[C@@H](NC(=O)[C@H](Cc1ccccc1)NC(=O)[C@H](N)CCCNC(=N)N)[C@@H](C)O)C(=O)N[C@H](C(=O)O)C(C)C` [Peptide 129] (H-[dR]FTSALSRLREGARLQRLLQGLV-OH), the IC50 stood at 1.14 ± 0.281 µM.

In the case of `CC(C)C[C@H](NC(=O)CNC(=O)[C@H](CCC(N)=O)NC(=O)[C@H](CC(C)C)NC(=O)[C@H](CC(C)C)NC(=O)[C@H](CCCNC(=N)N)NC(=O)[C@H](CCC(N)=O)NC(=O)[C@H](CC(C)C)NC(=O)[C@H](CCCNC(=N)N)NC(=O)[C@H](C)NC(=O)CNC(=O)[C@H](CCC(=O)O)NC(=O)[C@H](CCCNC(=N)N)NC(=O)[C@H](CC(C)C)NC(=O)[C@H](C)NC(=O)[C@H](CO)NC(=O)[C@H](CC(C)C)NC(=O)[C@H](CCC(=O)O)NC(=O)[C@H](CO)NC(=O)[C@@H](NC(=O)[C@H](Cc1ccccc1)NC(=O)[C@H](N)CCCNC(=N)N)[C@@H](C)O)C(=O)N[C@H](C(=O)O)C(C)C` [Peptide 132] (H-[dR]FTSELSALREGARLQRLLQGLV-OH), the IC50 amounted to 2.48 ± 0.579 µM.

As for `CC(C)C[C@H](NC(=O)CNC(=O)[C@H](CCC(N)=O)NC(=O)[C@H](CC(C)C)NC(=O)[C@H](CC(C)C)NC(=O)[C@H](CCCNC(=N)N)NC(=O)[C@H](CCC(N)=O)NC(=O)[C@H](CC(C)C)NC(=O)[C@H](CCCNC(=N)N)NC(=O)[C@H](C)NC(=O)CNC(=O)[C@H](CCC(=O)O)NC(=O)[C@H](CCCNC(=N)N)NC(=O)[C@H](CC(C)C)NC(=O)[C@H](CCCNC(=N)N)NC(=O)[C@H](CO)NC(=O)[C@H](CC(C)C)NC(=O)[C@H](CCC(=O)O)NC(=O)[C@H](CO)NC(=O)[C@@H](NC(=O)[C@H](Cc1ccccc1)NC(=O)[C@H](N)CCCNC(=N)N)[C@@H](C)O)C(=O)N[C@H](C(=O)O)C(C)C` [Peptide 125], the IC50 amounted to 1.36 ± 0.322 µM.

With `CC(C)C[C@H](NC(=O)CNC(=O)[C@H](CCC(N)=O)NC(=O)[C@H](CC(C)C)NC(=O)[C@H](CC(C)C)NC(=O)[C@H](C)NC(=O)[C@H](CCC(N)=O)NC(=O)[C@H](CC(C)C)NC(=O)[C@H](CCCNC(=N)N)NC(=O)[C@H](C)NC(=O)CNC(=O)[C@H](CCC(=O)O)NC(=O)[C@H](CCCNC(=N)N)NC(=O)[C@H](CC(C)C)NC(=O)[C@H](CCCNC(=N)N)NC(=O)[C@H](CO)NC(=O)[C@H](CC(C)C)NC(=O)[C@H](CCC(=O)O)NC(=O)[C@H](CO)NC(=O)[C@@H](NC(=O)[C@H](Cc1ccccc1)NC(=O)[C@H](N)CCCNC(=N)N)[C@@H](C)O)C(=O)N[C@H](C(=O)O)C(C)C` [Peptide 140] (H-[dR]FTSELSRLREGARLQALLQGLV-OH), the IC50 amounted to 1.49 ± 0.218 µM.

As to `CC(C)C[C@H](NC(=O)CNC(=O)[C@H](CCC(N)=O)NC(=O)[C@H](CC(C)C)NC(=O)[C@H](CC(C)C)NC(=O)[C@H](CCCNC(=N)N)NC(=O)[C@H](CCC(N)=O)NC(=O)[C@H](CC(C)C)NC(=O)[C@H](CCCNC(=N)N)NC(=O)[C@H](C)NC(=O)CNC(=O)[C@H](CCC(=O)O)NC(=O)[C@H](CCCNC(=N)N)NC(=O)[C@H](CC(C)C)NC(=O)[C@H](CCCNC(=N)N)NC(=O)[C@H](CO)NC(=O)[C@H](CC(C)C)NC(=O)[C@H](CCC(=O)O)NC(=O)[C@H](CO)NC(=O)[C@H](C)NC(=O)[C@H](Cc1ccccc1)NC(=O)[C@H](N)CCCNC(=N)N)C(=O)N[C@H](C(=O)O)C(C)C` [Peptide 127], the IC50 was determined as 1.61 ± 0.185 µM.
